Compound `CC(Oc1ccc(C(=O)NCCN(O)C(N)=O)cc1)c1ccccc1` (stereo not drawn) has a melting point of 164 to 166 °C.
Work on `CCCCN(CCCC)CCCCOc1ccc(S(=O)(=O)c2c(C(C)C)cn3ccccc23)cc1` yielded a melting point of 96 °C.
Compound `O=[N+]([O-])c1ccc(Oc2cccc3cccnc23)cc1` has a melting point of 165 to 166 °C.
Compound `Cc1cc(-c2nnn(C)n2)cc(C)c1OCCCn1cncn1` has a melting point of 76 to 78 °C.
Work on `CC(=O)CN1C(=O)COc2ccccc21` yielded a melting point of 74 to 76 °C.
With `O=c1[nH]c2ccc(C(F)(F)F)cc2c(-c2cc(Cl)ccc2O)c1NS(=O)(=O)C(F)(F)F` the melting point was 268 to 270 °C.
In the case of `Cn1c(COc2ccc(CC3SC(=O)NC3=O)cc2)nc2ccc(Oc3ccc(CCNC(=O)Nc4ccc(F)cc4F)cc3)cc21` (stereo not drawn), the melting point was 161 to 164 °C.
`O=C1NC(=O)N2Cc3ccccc3CC12` (stereo not drawn) showed a melting point of 225 to 231 °C.
With `CCN(CC)CC1=Cc2ccc(Cl)cc2S1(=O)=O` the melting point was 58 to 59 °C.
With `CC(C)c1nn(-c2ccc(C(F)(F)F)cn2)cc1CCCOc1c(Br)cccc1CC(=O)O` the melting point was 146 to 147 °C.
In the case of `CCCCn1ccc(C=CC(=O)O)cc1=O`, the melting point was 131 to 134 °C.
Compound `CCN1C=C(C(=O)c2c(C)nn3ccccc23)CCC1` has a melting point of 104 to 105 °C.
Work on `Cn1nc(Br)c2c(=O)n3c(nc21)SCC3` yielded a melting point of 205 to 206 °C.
`Cc1cc(O)cc(C)c1N=Cc1ccc(O)cc1O` gave a melting point of 193 to 197 °C.
`O=C(O)c1cc2ccccc2nc1C(=O)O` showed a melting point of 271 to 277 °C.
`COc1ccc(N2C=CN(CCC(C)(C)NCC(O)c3ccc(OCc4ccccc4)c(CO)c3)C2)cc1` (stereo not drawn) gave a melting point of 108 to 111 °C.
`CSc1nc(=O)n(Cc2ccccc2)c2ncn(C)c12` showed a melting point of 268 to 270 °C.
With `Cc1ccc(C)c(OCCC(Cl)C(C)(C)C(=O)O)c1` (stereo not drawn) the melting point was 117 to 118 °C.
Work on `COc1c(C)c2c(c(NS(C)(=O)=O)c1C/C=C(\C)CCC(=O)O)C(=O)OC2` yielded a melting point of 170 to 176 °C.
`COc1ccc(/C=C/S(=O)(=O)CS(=O)(=O)/C=C/c2ccc(OC)c([N+](=O)[O-])c2)cc1[N+](=O)[O-]` gave a melting point of 263 to 265 °C.
Work on `COC(=O)c1cc(C(=O)N(C)C)c2cc(Cc3ccc(F)cc3)cnc2c1O` yielded a melting point of 219 to 220 °C.
With `O=C(O)c1c2ccccc2nc2ccc3ccccc3c12` the melting point was 169 to 170 °C.
Work on `CC1Cc2c(N3C(=O)C4CCCCN4C3=O)ccc(Cl)c2O1` (stereo not drawn) yielded a melting point of 145 to 148 °C.
`CCC(=O)c1cc2ccccc2s1` gave a melting point of 79 to 81 °C.
Work on `CC1=NC(NC(=O)Nc2cccc(C)c2)C(=O)N(CC(=O)N(CC(C)C)CC(C)C)c2c(C)cccc21` (stereo not drawn) yielded a melting point of 227 to 228 °C.
Compound `CC(C)(C)NC(=O)[C@@H]1CCCC[C@H]1C[C@@H](O)[C@H](Cc1ccccc1)NC(=O)[C@H](CC(N)=O)NC(=O)OCc1ccccc1` has a melting point of 195 to 199 °C.
For `Cc1nn(C)c(Cl)c1S(N)(=O)=O`, the melting point was 173 °C.
For `CSc1nc(N2CCc3ccccc3CC2)c(C#N)c(=O)[nH]1`, the melting point was > 250 °C.
`COc1ccc2cc3c(c(-c4ccc(F)cc4)c2c1)CNC3=O` showed a melting point of 282 to 284 °C.
With `NC(CN1C(=O)C2(COc3cc4c(cc32)OCO4)c2ccccc21)=NO` (stereo not drawn) the melting point was 235 to 238 °C.
`O=C(O)CCc1ccc(-c2ccccc2)cc1` gave a melting point of 143 to 149 °C.
With `Oc1ncnc2[nH]c(-c3ccc4ccccc4c3)cc12` the melting point was > 300 °C.
Work on `CS(=O)(=O)c1ccc(-c2oc3ccccc3c(=O)c2-c2ccc(Br)cc2)cc1` yielded a melting point of 168 to 170 °C.
`Cc1nc2cccc(OCC(C)(C)C(=O)NC3CC3)c2c(N)c1C(=O)O` gave a melting point of 227 to 229 °C.
Compound `CCn1ccnc1CC1COc2ccccc2O1` (stereo not drawn) has a melting point of 77 to 78 °C.
Work on `CCOC(=O)C1=C(C)NC(c2nccn2C)=NC1c1ccc(F)cc1Cl` (stereo not drawn) yielded a melting point of 166 to 167 °C.
`CCc1nc2c(N)nc3ccccc3c2n1CCCCNS(=O)(=O)c1ccccc1` showed a melting point of 181 to 182 °C.
For `N#CCCNC(=O)c1cccc(-c2cncc3cc(Cc4cccc(C(F)(F)F)c4)oc23)c1`, the melting point was 152 to 154 °C.
For `CCCCCCCCCCCCCCOc1cc(C)ccc1C`, the melting point was 36.9 to 37.9 °C.
Work on `CS(=O)(=O)c1ccc(C(CC2CCCC2)C(=O)O)cc1C(F)(F)F` (stereo not drawn) yielded a melting point of 100 to 102 °C.
In the case of `C=C(C(=O)c1ccc(OC)c(Cl)c1Cl)c1ccccc1`, the melting point was 83.5 to 86 °C.
In the case of `CC(C)CNC(=O)C=CCBr`, the melting point was 94 to 95 °C.
For `CC1(C)CC(=O)c2cc3c(cc2O1)OCCO3`, the melting point was 118 to 119 °C.
Compound `CCCOC(=O)N(C)S(=O)(=O)c1cc([N+](=O)[O-])c(N(CCC)CCC)c([N+](=O)[O-])c1` has a melting point of 110 to 113 °C.
`CCCCC(CC)COc1ccc2c(-c3ccc(CBr)cc3)c3cc(OCC(CC)CCCC)ccc3c(-c3ccc(CBr)cc3)c2c1` (stereo not drawn) gave a melting point of 105 to 107 °C.
For `CC(O)c1ccc(Cl)c(S(N)(=O)=O)c1` (stereo not drawn), the melting point was 144 to 146 °C.
In the case of `Cc1nc2c(OCc3ccccc3)nccc2n1C`, the melting point was 115 to 116 °C.
In the case of `CN1C(=O)N(c2c(Cl)cccc2Cl)Cc2cnc(Nc3ccc(F)cc3)nc21`, the melting point was 208 to 211 °C.
Work on `CCN1CNC(=O)NC1=O` yielded a melting point of 220 to 224 °C.
`O=C(N1CCc2cc(O)c(O)cc2C(c2ccccc2)C1)C(F)(F)F` (stereo not drawn) showed a melting point of 182 to 188 °C.
`C(=NC(c1ccccc1)c1ccccc1)c1ccccc1` gave a melting point of 99 to 101 °C.
With `NSc1nc(N)nc2c1ncn2C1OC(CO)C(O)C1O` (stereo not drawn) the melting point was 190 to 192 °C.
In the case of `C[C@]1(CN)COc2cccc(-c3ccccc3)c2O1`, the melting point was 130 to 133 °C.
With `Cc1cc(=O)c(-c2ccc(Cl)cc2)c(C)n1C` the melting point was 221 to 222 °C.
In the case of `O=C(O)c1ccc(-c2cccc3cc(Cc4cccc(C(F)(F)F)c4)sc23)cc1`, the melting point was 200 to 201 °C.
In the case of `CSc1c2c3c(cccc3n1CO)C1C=C(C)CN(C)C1C2` (stereo not drawn), the melting point was 133 to 135 °C.
With `CCCCCCC(Oc1ccc(C2=CCCCCC2)cc1)C(=O)O` (stereo not drawn) the melting point was 59 to 60 °C.
For `C#CCN(Cc1cc2c(=O)[nH]c(CO)nc2cc1Cl)c1ccc(C(=O)OC(C)(C)C)cc1`, the melting point was 185 to 187 °C.
For `CCOC(=O)Nc1nc(Cc2ccccc2)c(C(=O)c2sc(NC(=O)OCC)nc2Cc2ccccc2)s1`, the melting point was 145 to 146 °C.
`Cc1c(-c2ccccc2)c(N2CC[C@H](N(C)C)C2)c2oc(N3CC(C)(O)C3)nc2c1C#N` showed a melting point of 167 to 169 °C.
`Cc1cc(Oc2c(F)cc(C(F)(F)F)cc2Cl)nn1C(=O)NCCBr` showed a melting point of 85 to 86 °C.
For `Cc1cccc(S(=O)(=O)NC(=O)NCCCCCCN)c1`, the melting point was 187 °C.
`Cn1c(C=O)c(-c2ccccc2)c2ccccc2c1=O` showed a melting point of 181 to 182 °C.
`CCNC(=S)C1=CC(C)(C)Oc2ccc(C#N)cc21` showed a melting point of 151 to 153 °C.
Work on `O=C(O)CN1C(=O)C(NC(=O)C(Cc2ccccc2)SC(=O)c2ccccc2)CCc2ccccc21` (stereo not drawn) yielded a melting point of 170 to 171 °C.
With `Cc1ccc(-c2cc3ncnc(Nc4ccc5[nH]ccc5c4)c3s2)cc1` the melting point was 200 to 220 °C.
With `OCc1cccc2c1[nH]c1c3cc(Br)ccc3oc21` the melting point was 218 to 219 °C.
`O=C(C=Cc1ccc(Cl)c(Cl)c1)C1CC1` showed a melting point of 74 to 76 °C.
`COCCc1nc2c(N)nc3ccccc3c2n1CC(C)(C)CN(C(N)=O)c1ccccc1` gave a melting point of 125 to 130 °C.
`Cn1c(=O)c(=O)[nH]c2ccc3ccccc3c21` gave a melting point of 294 to 295 °C.
With `CC1c2ccccc2-c2ccccc2N1S(=O)(=O)c1ccc(O)c(C(=O)O)c1` (stereo not drawn) the melting point was 225 to 230 °C.
With `N#Cc1ccc(N(Cc2ccc(O)c(Cl)c2)n2cnnc2)cc1-c1cc2ccccc2o1` the melting point was 196 to 197 °C.
`N#CC(=NO)c1cccnc1` gave a melting point of 234 to 238 °C.

— a melting point compilation (Tetko et al.; mined from patent text by program, amines drawn as free bases though some values may be those of a salt)
